Test results reported in PubChem BioAssay (NCI).
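96-well plates; 48 h exposure; 5 concentrations. Endpoints by linear interpolation between flanking doses. Not reached: highest tested concentration assigned. TGI: concentration producing complete growth inhibition.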

Key:
Test in all cases: NCI tumour cell line growth inhibition, 48 h
[1] = test system: K-562 leukemia
[2] = test system: NCI/ADR-RES ovarian
[3] = test system: KM12 colon
[4] = test system: SW-620 colon
[5] = test system: UACC-62 melanoma
[6] = test system: UACC-257 melanoma
[7] = test system: CAKI-1 renal
[8] = test system: HCC-2998 colon
[9] = test system: NCI-H522 lung
[10] = test system: KM20L2 colon
[11] = test system: SK-OV-3 ovarian
[12] = test system: SK-MEL-2 melanoma
[13] = test system: SNB-19 CNS
[14] = test system: SK-MEL-5 melanoma
[15] = test system: MCF7 breast
[16] = test system: OVCAR-3 ovarian
[17] = test system: NCI-H226 lung
[18] = test system: SK-MEL-28 melanoma
[19] = test system: DMS 114 small cell lung
[20] = test system: SNB-78 CNS
[21] = test system: LOX IMVI melanoma
[22] = test system: SF-539 CNS
[23] = test system: HL-60(TB) leukemia
[24] = test system: NCI-H460 lung
[25] = test system: HCT-116 colon
[26] = test system: HOP-62 NSCLC
[27] = test system: M19-MEL melanoma
[28] = test system: OVCAR-5 ovarian
[29] = test system: SN12K1 renal
[30] = test system: OVCAR-4 ovarian
[31] = test system: COLO 205 colon
[32] = test system: P388 leukemia
[33] = test system: SF-295 CNS
[34] = test system: CCRF-CEM leukemia
[35] = test system: HOP-92 NSCLC
[36] = test system: OVCAR-8 ovarian
[37] = test system: P388/ADR leukemia
[38] = test system: SNB-75 CNS
[39] = test system: DMS 273 small cell lung
[40] = test system: MALME-3M melanoma
[41] = test system: UO-31 renal
[42] = test system: A498 renal
[43] = test system: MOLT-4 leukemia
[44] = test system: XF 498 CNS
[45] = test system: DLD-1 colon
[46] = test system: HCT-15 colon
[47] = test system: SN12C renal
[48] = test system: NCI-H23 lung
[49] = test system: RPMI-8226 leukemia
[50] = test system: A549 NSCLC
[51] = test system: U251 CNS
[52] = test system: HT29 colon
[53] = test system: RXF 393 renal
[54] = test system: EKVX NSCLC
[55] = test system: IGROV1 ovarian
[56] = test system: SF-268 CNS
[57] = test system: ACHN renal
[58] = test system: M14 melanoma
[59] = test system: RXF-631 renal
[60] = test system: 786-0 renal
[61] = test system: TK-10 renal
[62] = test system: HOP-18 NSCLC

## CCCCCCCC/C=C\CCCCCCCC(=O)O
[1]
  TGI: 219 µM
[2]
  TGI: 196 µM
[3]
  TGI: > 500 µM
[4]
  TGI: 355 µM
[5]
  TGI: 351 µM
[6]
  TGI: 201 µM
[7]
  TGI: 206 µM
[8]
  TGI: > 500 µM
[9]
  TGI: 210 µM
[10]
  TGI: > 500 µM
[11]
  TGI: > 500 µM
[12]
  TGI: > 281 µM
[13]
  TGI: 252 µM
[14]
  TGI: > 282 µM
[15]
  TGI: 215 µM
[16]
  TGI: > 232 µM
[17]
  TGI: 227 µM
[18]
  TGI: 329 µM
[19]
  TGI: 194 µM
[20]
  TGI: 130 µM
[21]
  TGI: 239 µM
[22]
  TGI: 184 µM
[23]
  TGI: 290 µM
[24]
  TGI: 192 µM
[25]
  TGI: 217 µM
[26]
  TGI: > 500 µM
[27]
  TGI: 183 µM
[28]
  TGI: > 500 µM
[29]
  TGI: 175 µM
[30]
  TGI: > 352 µM
[31]
  TGI: > 500 µM
[32]
  TGI: 274 µM
[33]
  TGI: 176 µM
[34]
  TGI: 197 µM
[35]
  TGI: > 5 µM
[36]
  TGI: 194 µM
[37]
  TGI: 200 µM
[38]
  TGI: 29.6 µM
[39]
  TGI: 210 µM
[40]
  TGI: > 500 µM
[41]
  TGI: 241 µM
[42]
  TGI: > 500 µM
[43]
  TGI: 331 µM
[44]
  TGI: 13.6 µM
[45]
  TGI: 221 µM
[46]
  TGI: 338 µM
[47]
  TGI: 199 µM
[48]
  TGI: 146 µM
[49]
  TGI: 277 µM
[50]
  TGI: 226 µM
[51]
  TGI: 231 µM
[52]
  TGI: > 500 µM
[53]
  TGI: 168 µM
[54]
  TGI: 164 µM
[55]
  TGI: > 281 µM
[56]
  TGI: 192 µM

## Cc1ccccc1C(=O)Oc1ccc(O)cc1
[1]
  TGI: > 100 µM
[3]
  TGI: > 100 µM
[4]
  TGI: > 100 µM
[5]
  TGI: > 100 µM
[6]
  TGI: > 100 µM
[7]
  TGI: > 100 µM
[8]
  TGI: > 100 µM
[9]
  TGI: > 100 µM
[10]
  TGI: > 100 µM
[11]
  TGI: > 100 µM
[12]
  TGI: > 100 µM
[13]
  TGI: > 100 µM
[14]
  TGI: > 100 µM
[16]
  TGI: > 100 µM
[17]
  TGI: > 100 µM
[20]
  TGI: > 100 µM
[22]
  TGI: > 100 µM
[23]
  TGI: > 100 µM
[24]
  TGI: > 100 µM
[25]
  TGI: > 100 µM
[57]
  TGI: > 100 µM
[26]
  TGI: > 100 µM
[27]
  TGI: > 100 µM
[28]
  TGI: > 100 µM
[30]
  TGI: > 100 µM
[58]
  TGI: > 100 µM
[31]
  TGI: > 100 µM
[33]
  TGI: > 100 µM
[59]
  TGI: > 100 µM
[34]
  TGI: > 100 µM
[36]
  TGI: > 100 µM
[38]
  TGI: > 100 µM
[39]
  TGI: > 100 µM
[40]
  TGI: > 100 µM
[41]
  TGI: > 100 µM
[42]
  TGI: > 100 µM
[43]
  TGI: > 100 µM
[45]
  TGI: > 100 µM
[46]
  TGI: > 100 µM
[47]
  TGI: > 100 µM
[48]
  TGI: > 100 µM
[49]
  TGI: > 100 µM
[50]
  TGI: > 100 µM
[51]
  TGI: > 100 µM
[52]
  TGI: > 100 µM
[60]
  TGI: > 100 µM
[53]
  TGI: > 100 µM
[54]
  TGI: > 100 µM
[55]
  TGI: > 100 µM
[61]
  TGI: > 100 µM
[62]
  TGI: > 100 µM
[56]
  TGI: > 100 µM
